According to patent US12662489B2 (Sitryx Therapeutics Limited, priority 2023, dated 2026):
pIC50: −log10 of the molar value.

How the values were obtained:
[1] = biological target: T1, MTHFD2 recombinant human enzyme (Homo sapiens, UniProt P13995); experiment: MTHFD2 inhibition assay (NAD(P)H-Glo luminescence); details: for MTHFD1/MTHFD2 IC50 ratio: selectivity of MTHFD2 inhibition over MTHFD1, band
T1 sequence (P13995 36-350): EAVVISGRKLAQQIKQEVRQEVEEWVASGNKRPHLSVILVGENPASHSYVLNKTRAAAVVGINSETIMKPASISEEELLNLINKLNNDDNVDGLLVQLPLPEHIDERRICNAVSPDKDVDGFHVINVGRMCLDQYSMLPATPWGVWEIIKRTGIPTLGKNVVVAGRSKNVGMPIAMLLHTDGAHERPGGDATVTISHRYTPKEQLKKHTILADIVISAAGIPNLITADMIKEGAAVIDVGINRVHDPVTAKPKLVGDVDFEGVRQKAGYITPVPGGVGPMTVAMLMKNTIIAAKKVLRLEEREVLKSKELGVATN

[2] = biological target: T2, MTHFD1 recombinant human enzyme (Homo sapiens, UniProt P11586); experiment: MTHFD1 inhibition assay (NAD(P)H-Glo luminescence); details: MTHFD1 IC50, recombinant human enzyme 200 nM, NADP, band
T2 sequence (P11586 2-291 limits assumed): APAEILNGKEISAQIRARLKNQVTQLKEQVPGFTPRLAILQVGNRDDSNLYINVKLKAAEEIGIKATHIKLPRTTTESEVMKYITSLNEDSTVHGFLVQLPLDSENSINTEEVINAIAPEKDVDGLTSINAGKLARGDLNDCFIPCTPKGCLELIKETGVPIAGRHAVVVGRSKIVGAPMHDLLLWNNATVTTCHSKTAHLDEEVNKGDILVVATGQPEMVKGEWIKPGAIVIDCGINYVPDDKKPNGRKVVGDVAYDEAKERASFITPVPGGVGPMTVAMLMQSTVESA

SMILES | pIC50 [1] | MTHFD1/MTHFD2 IC50 ratio [1] | pIC50 [2]
COC[C@H]1CN(c2ccc3c4c(c(=O)oc3c2C)CN(C(=O)c2cc(N(C)C)c(C(=O)NS(=O)(=O)N3C5CCC3CC5)cc2F)CC4)CCN1C [Example 188, (R)-N-((7-azabicyclo[2.2.1]heptan-7-yl)sulfonyl)-2-(dimethylamino)-5-fluoro-4-(8-(3-(methoxymethyl)-4-methylpiperazin-1-yl)-7-methyl-5-oxo-1,3,4,5-tetrahydro-2H-chromeno[3,4-c]pyridine-3-carbonyl)benzamide] | 7.00 to 8.00 | H (>9.0 to 30) | 5.30 to 6.00
COC[C@H]1CN(c2ccc3c4c(c(=O)oc3c2C)CN(C(=O)c2cc(N(C)C)c(C(=O)NS(=O)(=O)N3CCC5(CC3)CC5)cc2F)CC4)CCN1C [Example 189, (R)-N-((6-azaspiro[2.5]octan-6-yl)sulfonyl)-2-(dimethylamino)-5-fluoro-4-(8-(3-(methoxymethyl)-4-methylpiperazin-1-yl)-7-methyl-5-oxo-1,3,4,5-tetrahydro-2H-chromeno[3,4-c]pyridine-3-carbonyl)benzamide] | 6.00 to 7.00 | H (>9.0 to 30) | 5.30 to 6.00
COC[C@H]1CN(c2ccc3c4c(c(=O)oc3c2C)CN(C(=O)c2cc(N(C)C)c(C(=O)NS(=O)(=O)N3CCC5(CC3)CC5)cc2Cl)CC4)CCN1C [Example 190, (R)-N-((6-azaspiro[2.5]octan-6-yl)sulfonyl)-5-chloro-2-(dimethylamino)-4-(8-(3-(methoxymethyl)-4-methylpiperazin-1-yl)-7-methyl-5-oxo-1,3,4,5-tetrahydro-2H-chromeno[3,4-c]pyridine-3-carbonyl)benzamide] | 6.00 to 7.00 | H (>9.0 to 30) | < 5.30
COC[C@H]1CN(c2ccc3c4c(c(=O)oc3c2)CN(C(=O)c2cc(N(C)C)c(C(=O)NS(=O)(=O)N3C5CCC3CC5)cc2F)CC4)CCN1C [Example 191, (R)-N-((7-azabicyclo[2.2.1]heptan-7-yl)sulfonyl)-2-(dimethylamino)-5-fluoro-4-(8-(3-(methoxymethyl)-4-methylpiperazin-1-yl)-5-oxo-1,3,4,5-tetrahydro-2H-chromeno[3,4-c]pyridine-3-carbonyl)benzamide] | 6.00 to 7.00 | G (^ 3 to 9.0) | < 5.30
Cc1c(N2CCN(C)[C@@H](COC(C)C)C2)ccc2c3c(c(=O)oc12)CN(C(=O)c1ccc(C(=O)NS(=O)(=O)N2CCCC2)c(OC2CCC2)c1F)CC3 [Example 192, (R)-2-cyclobutoxy-3-fluoro-4-(8-(3-(isopropoxymethyl)-4-methylpiperazin-1-yl)-7-methyl-5-oxo-1,3,4,5-tetrahydro-2H-chromeno[3,4-c]pyridine-3-carbonyl)-N-(pyrrolidin-1-ylsulfonyl)benzamide] | 6.00 to 7.00 | F (<3) | 6.00 to 7.00
COC[C@H]1CN(c2ccc3c4c(c(=O)oc3c2C)CN(C(=O)c2cc(N3CCC3)c(C(=O)NS(=O)(=O)N3CCCC3)cc2F)CC4)CCN1C [Example 194, (R)-2-(azetidin-1-yl)-5-fluoro-4-(8-(3-(methoxymethyl)-4-methylpiperazin-1-yl)-7-methyl-5-oxo-1,3,4,5-tetrahydro-2H-chromeno[3,4-c]pyridine-3-carbonyl)-N-(pyrrolidin-1-ylsulfonyl)benzamide] | 7.00 to 8.00 | G (^ 3 to 9.0) | 6.00 to 7.00
CCOc1c(C(=O)NS(=O)(=O)N2CCCCC2)ccc(C(=O)N2CCc3c(c(=O)oc4c(C)c(N5CCN(C)[C@@H](COC)C5)cc(C)c34)C2)c1F [Example 197, (R)-2-ethoxy-3-fluoro-4-(8-(3-(methoxymethyl)-4-methylpiperazin-1-yl)-7,10-dimethyl-5-oxo-1,3,4,5-tetrahydro-2H-chromeno[3,4-c]pyridine-3-carbonyl)-N-(piperidin-1-ylsulfonyl)benzamide] | 7.00 to 8.00 | G (^ 3 to 9.0) | 7.00 to 8.00
CCOc1c(C(=O)NS(=O)(=O)N2CCCCC2)ccc(C(=O)N2CCc3c(c(=O)oc4c(C)c(N5CCN(C)[C@@H](COC)C5)ccc34)C2)c1F [Example 198, (R)-2-ethoxy-3-fluoro-4-(8-(3-(methoxymethyl)-4-methylpiperazin-1-yl)-7-methyl-5-oxo-1,3,4,5-tetrahydro-2H-chromeno[3,4-c]pyridine-3-carbonyl)-N-(piperidin-1-ylsulfonyl)benzamide] | 6.00 to 7.00 | F (<3) | 6.00 to 7.00
COC[C@H]1CN(c2cc(C)c3c4c(c(=O)oc3c2C)CN(C(=O)c2ccc(C(=O)NS(=O)(=O)N3CCCC3)c(N(C)C3CCC3)c2)CC4)CCN1C [Example 200, (R)-2-(cyclobutyl(methyl)amino)-4-(8-(3-(methoxymethyl)-4-methylpiperazin-1-yl)-7,10-dimethyl-5-oxo-1,3,4,5-tetrahydro-2H-chromeno[3,4-c]pyridine-3-carbonyl)-N-(pyrrolidin-1-ylsulfonyl)benzamide] | 7.00 to 8.00 | H (>9.0 to 30) | 6.00 to 7.00
COC[C@H]1CN(c2ccc3c4c(c(=O)oc3c2C)CN(C(=O)c2cc(N3CCC3)c(C(=O)NS(=O)(=O)N3CC5CC5C3)cc2F)CC4)CCN1C (stereo partly drawn) [Example 203, N-((3-azabicyclo[3.1.0]hexan-3-yl)sulfonyl)-2-(azetidin-1-yl)-5-fluoro-4-(8-((R)-3-(methoxymethyl)-4-methylpiperazin-1-yl)-7-methyl-5-oxo-1,3,4,5-tetrahydro-2H-chromeno[3,4-c]pyridine-3-carbonyl)benzamide] | 7.00 to 8.00 | G (^ 3 to 9.0) | 6.00 to 7.00
COC[C@H]1CN(c2cc(C)c3c4c(c(=O)oc3c2C)CN(C(=O)c2ccc(C(=O)NS(=O)(=O)N3CCC(F)CC3)cc2F)CC4)CCN1C [Example 204, (R)-3-fluoro-N-((4-fluoropiperidin-1-yl)sulfonyl)-4-(8-(3-(methoxymethyl)-4-methylpiperazin-1-yl)-7,10-dimethyl-5-oxo-1,3,4,5-tetrahydro-2H-chromeno[3,4-c]pyridine-3-carbonyl)benzamide] | 7.00 to 8.00 | J (>30) | 5.30 to 6.00
CCCOc1c(C(=O)NS(=O)(=O)N2CCCC2)ccc(C(=O)N2CCc3c(c(=O)oc4c(C)c(N5CCN(C)[C@@H](COC)C5)cc(C)c34)C2)c1F [Example 205, (R)-3-fluoro-4-(8-(3-(methoxymethyl)-4-methylpiperazin-1-yl)-7,10-dimethyl-5-oxo-1,3,4,5-tetrahydro-2H-chromeno[3,4-c]pyridine-3-carbonyl)-2-propoxy-N-(pyrrolidin-1-ylsulfonyl)benzamide] | 7.00 to 8.00 | G (^ 3 to 9.0) | 7.00 to 8.00
COC[C@H]1CN(c2cc(C)c3c4c(c(=O)oc3c2C)CN(C(=O)c2ccc(C(=O)NS(=O)(=O)N3CCCC3)c(OCC(F)(F)F)c2F)CC4)CCN1C [Example 206, (R)-3-fluoro-4-(8-(3-(methoxymethyl)-4-methylpiperazin-1-yl)-7,10-dimethyl-5-oxo-1,3,4,5-tetrahydro-2H-chromeno[3,4-c]pyridine-3-carbonyl)-N-(pyrrolidin-1-ylsulfonyl)-2-(2,2,2-trifluoroethoxy)benzamide] | 7.00 to 8.00 | F (<3) | 7.00 to 8.00
COC[C@H]1CN(c2cc(C)c3c4c(c(=O)oc3c2C)CN(C(=O)c2ccc(C(=O)NS(=O)(=O)N3CC5CC5C3)c(OC3CC3)c2F)CC4)CCN1C (stereo partly drawn) [Example 207, N-((3-azabicyclo[3.1.0]hexan-3-yl)sulfonyl)-2-cyclopropoxy-3-fluoro-4-(8-((R)-3-(methoxymethyl)-4-methylpiperazin-1-yl)-7,10-dimethyl-5-oxo-1,3,4,5-tetrahydro-2H-chromeno[3,4-c]pyridine-3-carbonyl)benzamide] | 7.00 to 8.00 | F (<3) | 7.00 to 8.00
CCOc1c(C(=O)NS(=O)(=O)N2CC3CC3C2)ccc(C(=O)N2CCc3c(c(=O)oc4c(Cl)c(N5CCN(C)[C@@H](COC)C5)ccc34)C2)c1F (stereo partly drawn) [Example 208, N-((3-azabicyclo[3.1.0]hexan-3-yl)sulfonyl)-4-(7-chloro-8-((R)-3-(methoxymethyl)-4-methylpiperazin-1-yl)-5-oxo-1,3,4,5-tetrahydro-2H-chromeno[3,4-c]pyridine-3-carbonyl)-2-ethoxy-3-fluorobenzamide] | 7.00 to 8.00 | F (<3) | 7.00 to 8.00
CCOc1c(C(=O)NS(=O)(=O)N2C3CCC2CC3)ccc(C(=O)N2CCc3c(c(=O)oc4c(Cl)c(N5CCN(C)[C@@H](COC)C5)ccc34)C2)c1F [Example 209, (R)-N-((7-azabicyclo[2.2.1]heptan-7-yl)sulfonyl)-4-(7-chloro-8-(3-(methoxymethyl)-4-methylpiperazin-1-yl)-5-oxo-1,3,4,5-tetrahydro-2H-chromeno[3,4-c]pyridine-3-carbonyl)-2-ethoxy-3-fluorobenzamide] | 7.00 to 8.00 | F (<3) | 7.00 to 8.00
